Patent publication US20070197602A1, “Combined pharmaceutical composition” (priority 2004, published 2007)

Tested on: streptozotocin-induced diabetic model
Test: Test Example 3: sucrose loading in streptozotocin-induced diabetic model, plasma glucose (GLU)
Format: in vivo, rat
Details: STZ rats; for GLU concentration before loading: Day 23, after oral once a day for 9 days, plasma glucose; for GLU concentration before loading / GLU concentration after loading / Rate of Change (GLU concentration after loading relative to before loading): metformin 50 mg/kg, voglibose 0.2 mg/kg, fenofibrate 50 mg/kg; for GLU concentration after loading: Day 24, 60 minutes after sucrose 2.5 g/kg oral given immediately after test article; for blood sugar level change by the sucrose loading (in words) / Rate of Change (GLU concentration after loading relative to before loading): sucrose loading 2.5 g/kg; for blood sugar level change by the sucrose loading (in words): STZ-treated control increased about 20%
Experimental: At 13 days after administration (Day 13), blood was collected from the rats, and plasma glucose (GLU) concentration was measured. […] From Day 14 (14 days after STZ administration), test articles shown in Table 1 were orally administered to the rats once a day for 9 days. At 23 days after STZ administration (Day 23), the GLU concentration was measured (previous value: GLU concentration before sucrose loading) (incidentally, the test articles were not administered on Day 23). […] Moreover, “N” represents the number of rats for determining the GLU concentration in the Table.

SMILES | GLU concentration before loading [g/L] | GLU concentration after loading [g/L] | blood sugar level change by the sucrose loading (in words) | Rate of Change (GLU concentration after loading relative to before loading) [%]
CC(C)OC(=O)C(C)(C)Oc1ccc(C(=O)c2ccc(Cl)cc2)cc1 [Fenofibrate] | 4.26 ± 0.55 | 4.78 ± 0.34 |  | 
CN(C)C(=N)N=C(N)N [Metformin] | 4.57 ± 0.36 | 5.41 ± 0.38 | increased | 118.4
OCC(CO)N[C@H]1C[C@](O)(CO)[C@@H](O)[C@H](O)[C@H]1O [Voglibose] | 4.30 ± 0.47 | 4.50 ± 0.42 | inhibited | 104.7
